Where two headings read alike, the source gives them in different places.
Key:
[1] = Host cell cytotoxicity assay (CellTiter-Glo); conditions: human
Procedure: HepG2 cells were grown in Eagle’s Minimum Essential Medium (MEM) containing 10% FBS, 1% nonessential amino acids (NEAA) and 1% penicillin/streptomycin to >50% confluence prior to harvesting. Cells were suspended in media and 3000 cells per well were added onto 384-well clear bottom plates. Prior to addition of the cell suspension, the screening compounds (250 nl) were predispensed into plates using a liquid handler. Plates were incubated for 48 h at 37°C, 5% CO2. After 48 h of incubation, plates were equilibrated at room temperature for 30 min before luminescence signal was measured using CellTiter-Glo Reagent. Plates were kept at room temperature for 10 min to stabilize the signal and then read using a ViewLux luminescence reader. The HepG2 CC50 (from the host cell cytotoxicity assays) and C. parvum mean EC50 (from parasite growth inhibition assays) values were used to calculate selectivity index.

Cryptosporidium parvum = assay: In vitro C. parvum growth inhibition assay (Nluc reporter strain in HCT-8 cells); type: cell-based; conditions: 48 h
Procedure: Host intestinal epithelial adenocarcinoma (HCT-8) cells were seeded into 96-well plates and grown to 70% confluence in RPMI medium supplemented with L-glutamine, 10% fetal bovine serum (FBS), 0.1 U/mL penicillin, 0.1 μg/mL streptomycin, 0.25 μg/mL amphotericin B and 1 mM sodium pyruvate. The host cell medium was aspirated and replaced with Cryptosporidium infection media (RPMI containing 2% FBS, 0.1 U/mL penicillin, 0.1 μg/mL streptomycin and 0.25 μg/mL amphotericin B) media prior to infection. The HCT-8 cells were infected with bleached and washed Nluc expressing C. parvum oocysts (2,000 oocysts per well) to which 10 μM compounds were added and plates were incubated for 48 h at 37°C, 5% CO2 and luminescence was measured using the protocol described previously ([14], [58]). […] Negative (no drug) and positive control (10 μM nitazoxanide) wells (three replicates each) were also set-up in the same plate. After the incubation, medium was removed and 100 μL of NanoGlo lysis buffer (Promega) was added to the wells followed by incubation for 15 min at 37°C, 5% CO2. The lysate was suspended by pipetting and 100 μL of NanoGlo lysis buffer containing 1:50 of NanoGlo substrate (Promega) was added to each well. […] For the dose response assay, compounds were tested in triplicate wells in two independent experiments and percent luminescence of no drug was calculated.
EC50 values were calculated using a nonlinear regression (curve fit of log-dose versus response) in GraphPad Prism version 8.

Row | SMILES | CC50 at 48 h [1] [µM] | inhibition at 10 µM (Cryptosporidium parvum; 10 μM, read-out: inhibition of C. parvum growth) [%] | inhibition at 10 µM (Cryptosporidium parvum; primary screen, 10 μM compound, three technical replicates, read-out: Mean percent inhibition of C. parvum growth) [%]
1 | Cc1ccc(O)cc1Nc1ccnc2ccc(S(C)(=O)=O)cc12 [Compound 5] | 15.8 |  | 
2 | CC(=O)Oc1ccccc1C(=O)Nc1ncc([N+](=O)[O-])s1 [Nitazoxanide, nitazoxanide, reference compound] |  | > 90 | 94.5
